From article PMC7265341, “Quantifying CDK inhibitor selectivity in live cells” (Nature Communications, 2020)
Like-named read-outs stand apart in the source and are kept apart here.

What was measured:
[1] = biological target: T1, CDK11A/Cyclin L2 (Homo sapiens, UniProt Q9UQ88); experiment: NanoBRET live-cell target engagement, CDK11A-NanoLuc/Cyclin L2 in HEK-293; format: binding; settings: 10µM
T1 sequence (Q9UQ88 1-783): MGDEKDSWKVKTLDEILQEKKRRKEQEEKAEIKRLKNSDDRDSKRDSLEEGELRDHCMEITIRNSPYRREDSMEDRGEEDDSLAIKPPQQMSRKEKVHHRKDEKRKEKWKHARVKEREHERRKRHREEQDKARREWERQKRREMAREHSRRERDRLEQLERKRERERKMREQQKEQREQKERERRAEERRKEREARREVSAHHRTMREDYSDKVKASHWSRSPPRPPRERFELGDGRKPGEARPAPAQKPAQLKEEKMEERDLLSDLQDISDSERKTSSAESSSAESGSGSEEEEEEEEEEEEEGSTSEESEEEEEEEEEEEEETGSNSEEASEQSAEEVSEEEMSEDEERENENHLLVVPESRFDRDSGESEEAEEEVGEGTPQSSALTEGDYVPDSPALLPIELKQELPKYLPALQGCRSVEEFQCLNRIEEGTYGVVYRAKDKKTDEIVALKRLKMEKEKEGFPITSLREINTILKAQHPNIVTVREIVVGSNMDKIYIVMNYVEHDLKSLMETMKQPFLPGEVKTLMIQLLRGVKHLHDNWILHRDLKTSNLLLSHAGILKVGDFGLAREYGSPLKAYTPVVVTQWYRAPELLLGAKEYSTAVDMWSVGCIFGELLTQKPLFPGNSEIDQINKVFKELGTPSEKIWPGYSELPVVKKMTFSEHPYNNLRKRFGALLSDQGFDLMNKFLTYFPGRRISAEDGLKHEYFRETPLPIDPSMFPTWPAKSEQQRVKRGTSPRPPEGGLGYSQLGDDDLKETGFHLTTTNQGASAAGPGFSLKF

[2] = biological target: CDK8/Cyclin C (Homo sapiens, UniProt P49336); experiment: NanoBRET live-cell target engagement, NanoLuc-CDK8/Cyclin C in HEK-293; format: binding; settings: CDK8/C, 10µM
[3] = biological target: CDK10/Cyclin L2 (Homo sapiens, UniProt Q15131); experiment: NanoBRET live-cell target engagement, CDK10-NanoLuc/Cyclin L2 in HEK-293; settings: 10µM
[4] = biological target: CDK19/Cyclin C (Homo sapiens, UniProt Q9BWU1); experiment: NanoBRET live-cell target engagement, NanoLuc-CDK19/Cyclin C in HEK-293; settings: 10µM
[5] = biological target: CDK7 (Homo sapiens, UniProt P50613); experiment: NanoBRET live-cell target engagement, NanoLuc-CDK7 in HEK-293; format: binding; settings: 10µM
[6] = biological target: CDK15/Cyclin Y (Homo sapiens, UniProt Q96Q40); experiment: NanoBRET live-cell target engagement, NanoLuc-CDK15/Cyclin Y in HEK-293; format: binding; settings: for IC50: CDK15/Y
[7] = biological target: CDK3/Cyclin E1 (Homo sapiens, UniProt Q00526); experiment: NanoBRET live-cell target engagement, CDK3-NanoLuc/Cyclin E1 in HEK-293; format: binding; settings: 10µM
[8] = biological target: CDK18/Cyclin Y (Homo sapiens, UniProt Q07002); experiment: NanoBRET live-cell target engagement, CDK18-NanoLuc/Cyclin Y in HEK-293; format: binding; settings: 10µM
[9] = biological target: CDK14/Cyclin Y (Homo sapiens, UniProt O94921); experiment: NanoBRET live-cell target engagement, CDK14-NanoLuc/Cyclin Y in HEK-293; format: binding; settings: for IC50: CDK14/Y
[10] = biological target: CDK6/Cyclin D1 (Homo sapiens, UniProt Q00534); experiment: NanoBRET live-cell target engagement, NanoLuc-CDK6/Cyclin D1 in HEK-293; format: binding; settings: CDK6/D1
[11] = biological target: CDK5/CDK5R1 (Homo sapiens, UniProt Q00535); experiment: NanoBRET live-cell target engagement, CDK5-NanoLuc/CDK5R1 in HEK-293; format: binding; settings: CDK5/CDK5R1, 10µM
[12] = biological target: CDK9/Cyclin K (Homo sapiens, UniProt P50750); experiment: NanoBRET live-cell target engagement, NanoLuc-CDK9/Cyclin K in HEK-293; format: binding; settings: CDK9/K, 10µM
[13] = biological target: CDK17/Cyclin Y (Homo sapiens, UniProt Q00537); experiment: NanoBRET live-cell target engagement, CDK17-NanoLuc/Cyclin Y in HEK-293; format: binding; settings: 10µM
[14] = biological target: CDK11B/Cyclin L2 (Homo sapiens, UniProt P21127); experiment: NanoBRET live-cell target engagement, CDK11B-NanoLuc/Cyclin L2 in HEK-293; format: binding; settings: 10µM
[15] = biological target: CDK16/Cyclin Y (Homo sapiens, UniProt Q00536); experiment: NanoBRET live-cell target engagement, CDK16-NanoLuc/Cyclin Y in HEK-293; format: binding; settings: for IC50: CDK16/Y
[16] = biological target: CDK20/Cyclin H (Homo sapiens, UniProt Q8IZL9); experiment: NanoBRET live-cell target engagement, NanoLuc-CDK20/Cyclin H in HEK-293; format: binding; settings: 10µM
[17] = biological target: CDK1/Cyclin E1 (Homo sapiens, UniProt P06493); experiment: NanoBRET live-cell target engagement, CDK1-NanoLuc/Cyclin E1 in HEK-293; format: binding; settings: CDK1/E1, 10µM
[18] = biological target: CDK4/Cyclin D1 (Homo sapiens, UniProt P11802); experiment: NanoBRET live-cell target engagement, NanoLuc-CDK4/Cyclin D1 in HEK-293; format: binding; settings: CDK4/D1
[19] = biological target: CDK2/Cyclin E1 (Homo sapiens, UniProt P24941); experiment: NanoBRET live-cell target engagement, CDK2-NanoLuc/Cyclin E1 in HEK-293; format: binding; settings: CDK2/E1
[20] = average of replicates, read-out: Inhibition at 10µM (%) Average
[21] = read-out: Inhibition at 10µM (%) Replicate 1
[22] = read-out: Inhibition at 10µM (%) Replicate 2
[23] = n=3 average ± SEM, n=2 average to 2 significant figures, read-out: IC50 (nM) Average*
[24] = read-out: IC50 (nM) Replicate 1
[25] = read-out: IC50 (nM) Replicate 2
[26] = read-out: IC50 (nM) Replicate 3

CDK9/Cyclin K, sequence (P50750 whole entry): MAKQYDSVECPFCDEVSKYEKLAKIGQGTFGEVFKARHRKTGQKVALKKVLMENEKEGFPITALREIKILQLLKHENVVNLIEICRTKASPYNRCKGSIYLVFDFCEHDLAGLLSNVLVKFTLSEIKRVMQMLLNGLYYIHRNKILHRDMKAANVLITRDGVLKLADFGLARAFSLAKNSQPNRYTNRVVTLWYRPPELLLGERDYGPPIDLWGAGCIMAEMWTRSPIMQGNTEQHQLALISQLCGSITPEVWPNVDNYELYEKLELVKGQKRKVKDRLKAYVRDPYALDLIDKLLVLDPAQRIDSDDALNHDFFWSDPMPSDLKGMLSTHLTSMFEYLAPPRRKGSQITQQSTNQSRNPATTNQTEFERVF
CDK9/Cyclin K, sequence (O75909 whole entry partner): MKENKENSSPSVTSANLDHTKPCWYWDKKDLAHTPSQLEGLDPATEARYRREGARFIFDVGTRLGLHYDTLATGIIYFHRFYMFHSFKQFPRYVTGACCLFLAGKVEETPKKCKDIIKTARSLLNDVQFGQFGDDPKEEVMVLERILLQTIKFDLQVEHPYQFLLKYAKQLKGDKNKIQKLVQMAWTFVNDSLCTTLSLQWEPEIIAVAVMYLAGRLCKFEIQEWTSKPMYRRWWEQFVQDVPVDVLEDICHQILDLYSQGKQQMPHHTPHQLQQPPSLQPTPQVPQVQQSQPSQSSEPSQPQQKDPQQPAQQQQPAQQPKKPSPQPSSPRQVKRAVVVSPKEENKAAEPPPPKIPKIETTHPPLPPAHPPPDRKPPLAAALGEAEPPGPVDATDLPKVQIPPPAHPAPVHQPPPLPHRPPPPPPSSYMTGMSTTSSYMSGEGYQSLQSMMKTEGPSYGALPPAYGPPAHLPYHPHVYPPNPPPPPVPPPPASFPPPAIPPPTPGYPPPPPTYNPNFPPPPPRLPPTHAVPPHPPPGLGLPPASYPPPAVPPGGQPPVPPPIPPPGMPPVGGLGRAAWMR
CDK16/Cyclin Y, sequence (Q00536 whole entry): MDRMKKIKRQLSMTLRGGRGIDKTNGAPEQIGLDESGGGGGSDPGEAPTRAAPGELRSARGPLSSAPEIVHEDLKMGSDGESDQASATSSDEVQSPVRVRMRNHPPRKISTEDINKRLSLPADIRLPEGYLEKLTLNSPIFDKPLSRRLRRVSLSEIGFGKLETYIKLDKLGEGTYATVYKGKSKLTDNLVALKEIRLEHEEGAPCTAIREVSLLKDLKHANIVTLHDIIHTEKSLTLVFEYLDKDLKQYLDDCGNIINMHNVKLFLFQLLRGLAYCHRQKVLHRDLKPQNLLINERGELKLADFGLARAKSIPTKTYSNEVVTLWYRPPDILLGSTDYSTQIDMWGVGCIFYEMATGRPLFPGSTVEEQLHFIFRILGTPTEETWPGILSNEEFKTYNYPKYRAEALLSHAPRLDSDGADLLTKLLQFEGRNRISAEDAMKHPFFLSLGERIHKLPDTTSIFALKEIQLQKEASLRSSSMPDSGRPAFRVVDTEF
CDK16/Cyclin Y, sequence (Q8ND76 whole entry partner): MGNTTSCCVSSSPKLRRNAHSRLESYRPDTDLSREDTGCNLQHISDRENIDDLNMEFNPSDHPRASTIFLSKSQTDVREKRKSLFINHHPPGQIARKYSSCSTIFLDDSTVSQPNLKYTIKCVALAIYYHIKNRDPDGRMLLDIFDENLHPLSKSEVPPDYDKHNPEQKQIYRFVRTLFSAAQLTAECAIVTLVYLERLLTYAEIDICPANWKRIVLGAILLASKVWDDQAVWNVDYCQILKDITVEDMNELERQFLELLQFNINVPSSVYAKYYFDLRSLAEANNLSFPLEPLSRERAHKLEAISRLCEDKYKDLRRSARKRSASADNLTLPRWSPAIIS
CDK7, sequence (P50613 whole entry): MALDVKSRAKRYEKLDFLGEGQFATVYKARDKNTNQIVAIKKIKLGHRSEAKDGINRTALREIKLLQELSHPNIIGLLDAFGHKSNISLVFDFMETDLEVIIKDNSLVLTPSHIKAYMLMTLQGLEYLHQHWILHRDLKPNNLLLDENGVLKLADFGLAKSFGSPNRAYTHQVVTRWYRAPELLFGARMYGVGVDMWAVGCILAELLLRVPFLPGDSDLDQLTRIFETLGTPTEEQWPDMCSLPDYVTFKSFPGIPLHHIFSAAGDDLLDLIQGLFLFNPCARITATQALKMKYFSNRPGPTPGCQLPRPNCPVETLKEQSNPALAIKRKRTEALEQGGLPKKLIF
CDK10/Cyclin L2, sequence (Q15131 whole entry): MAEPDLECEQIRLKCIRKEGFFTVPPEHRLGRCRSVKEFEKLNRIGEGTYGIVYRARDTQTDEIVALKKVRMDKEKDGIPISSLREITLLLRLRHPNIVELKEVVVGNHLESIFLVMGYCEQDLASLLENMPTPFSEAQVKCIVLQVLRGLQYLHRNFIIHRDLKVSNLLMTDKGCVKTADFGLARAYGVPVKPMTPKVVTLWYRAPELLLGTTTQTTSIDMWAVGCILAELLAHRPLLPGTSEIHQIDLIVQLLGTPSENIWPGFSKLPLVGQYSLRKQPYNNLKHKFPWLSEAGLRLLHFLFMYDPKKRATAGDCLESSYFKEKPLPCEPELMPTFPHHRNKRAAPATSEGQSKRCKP
CDK14/Cyclin Y, sequence (O94921 whole entry): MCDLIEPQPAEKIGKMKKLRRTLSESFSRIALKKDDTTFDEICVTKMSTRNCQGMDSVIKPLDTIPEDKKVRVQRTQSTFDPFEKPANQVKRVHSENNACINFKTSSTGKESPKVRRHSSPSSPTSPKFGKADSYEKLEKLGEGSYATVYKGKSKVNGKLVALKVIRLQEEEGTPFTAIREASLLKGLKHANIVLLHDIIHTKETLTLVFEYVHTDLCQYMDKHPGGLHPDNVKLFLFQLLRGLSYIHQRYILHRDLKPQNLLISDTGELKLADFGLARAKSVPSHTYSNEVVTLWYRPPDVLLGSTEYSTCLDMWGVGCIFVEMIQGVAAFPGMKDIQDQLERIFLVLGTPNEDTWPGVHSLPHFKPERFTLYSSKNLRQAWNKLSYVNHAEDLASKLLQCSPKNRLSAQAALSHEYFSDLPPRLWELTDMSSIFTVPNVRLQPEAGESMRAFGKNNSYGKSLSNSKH
CDK14/Cyclin Y, sequence (Q8ND76 whole entry partner): as the sequence (Q8ND76 whole entry partner) above
CDK3/Cyclin E1, sequence (Q00526 whole entry): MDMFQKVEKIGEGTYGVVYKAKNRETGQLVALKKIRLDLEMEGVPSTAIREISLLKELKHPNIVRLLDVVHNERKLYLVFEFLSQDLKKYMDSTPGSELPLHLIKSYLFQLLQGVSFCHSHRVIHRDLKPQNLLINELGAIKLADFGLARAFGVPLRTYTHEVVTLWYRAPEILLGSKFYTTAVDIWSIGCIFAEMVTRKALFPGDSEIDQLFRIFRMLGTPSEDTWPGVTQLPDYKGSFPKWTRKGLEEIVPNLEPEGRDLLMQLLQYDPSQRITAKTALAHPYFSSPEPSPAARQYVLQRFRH
CDK3/Cyclin E1, sequence (P24864 whole entry partner): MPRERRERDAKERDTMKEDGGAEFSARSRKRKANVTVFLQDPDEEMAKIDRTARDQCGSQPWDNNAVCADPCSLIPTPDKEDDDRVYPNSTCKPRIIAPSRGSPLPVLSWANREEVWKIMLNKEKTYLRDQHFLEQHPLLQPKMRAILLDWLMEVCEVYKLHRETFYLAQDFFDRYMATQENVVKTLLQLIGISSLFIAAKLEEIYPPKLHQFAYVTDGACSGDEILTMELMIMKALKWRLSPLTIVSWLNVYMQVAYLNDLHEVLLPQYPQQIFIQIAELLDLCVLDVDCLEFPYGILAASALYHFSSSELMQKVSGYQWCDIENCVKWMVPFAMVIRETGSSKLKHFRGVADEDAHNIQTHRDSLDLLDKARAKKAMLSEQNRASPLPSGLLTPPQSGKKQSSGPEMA
CDK18/Cyclin Y, sequence (Q07002 whole entry): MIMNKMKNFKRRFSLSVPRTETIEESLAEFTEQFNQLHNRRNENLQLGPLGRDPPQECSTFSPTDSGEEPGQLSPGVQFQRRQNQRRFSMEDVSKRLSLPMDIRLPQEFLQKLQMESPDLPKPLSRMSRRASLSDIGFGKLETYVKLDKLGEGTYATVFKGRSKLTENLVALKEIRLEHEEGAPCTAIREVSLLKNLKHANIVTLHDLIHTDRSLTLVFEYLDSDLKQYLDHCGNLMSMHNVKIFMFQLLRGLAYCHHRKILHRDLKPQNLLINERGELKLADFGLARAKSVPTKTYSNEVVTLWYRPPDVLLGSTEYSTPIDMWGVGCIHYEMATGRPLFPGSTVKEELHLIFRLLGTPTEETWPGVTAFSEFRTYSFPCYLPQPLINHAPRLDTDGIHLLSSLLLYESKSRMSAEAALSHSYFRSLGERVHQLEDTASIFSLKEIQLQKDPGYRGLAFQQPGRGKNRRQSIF
CDK18/Cyclin Y, sequence (Q8ND76 whole entry partner): as the sequence (Q8ND76 whole entry partner) above
CDK17/Cyclin Y, sequence (Q00537 whole entry): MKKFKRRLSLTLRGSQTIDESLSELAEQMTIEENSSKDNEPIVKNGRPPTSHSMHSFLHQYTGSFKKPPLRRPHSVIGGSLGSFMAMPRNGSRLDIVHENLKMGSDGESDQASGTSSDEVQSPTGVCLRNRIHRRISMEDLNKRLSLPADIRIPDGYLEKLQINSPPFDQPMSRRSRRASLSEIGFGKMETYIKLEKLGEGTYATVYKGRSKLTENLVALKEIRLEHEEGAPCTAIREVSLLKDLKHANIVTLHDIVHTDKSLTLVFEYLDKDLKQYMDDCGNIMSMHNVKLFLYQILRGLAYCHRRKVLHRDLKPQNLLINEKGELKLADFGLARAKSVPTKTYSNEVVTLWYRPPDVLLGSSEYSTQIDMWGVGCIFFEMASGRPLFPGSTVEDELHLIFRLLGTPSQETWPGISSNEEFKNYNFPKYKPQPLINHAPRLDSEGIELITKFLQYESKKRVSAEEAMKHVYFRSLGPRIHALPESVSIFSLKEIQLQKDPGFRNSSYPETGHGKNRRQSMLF
CDK17/Cyclin Y, sequence (Q8ND76 whole entry partner): as the sequence (Q8ND76 whole entry partner) above

C[C@H]1CC[C@H](n2c3cnccc3c3cnc(Nc4ccc5c(n4)CCN(C(=O)CO)C5)nc32)CC1 [AMG 925]
inhibition at 10 µM ([1]; read-out: Inhibition at 10µM (%) Average, CDK11a/L2, average of replicates): 6.7%
inhibition at 10 µM ([1]; read-out: Inhibition at 10µM (%) Replicate 1, CDK11a/L2): -0.9%
inhibition at 10 µM ([1]; read-out: Inhibition at 10µM (%) Replicate 2, CDK11a/L2): 14.4%
inhibition at 10 µM [2, 20]: 12.6%
inhibition at 10 µM [2, 21]: 13.8%
inhibition at 10 µM [2, 22]: 11.5%
inhibition at 10 µM ([3]; read-out: Inhibition at 10µM (%) Average, CDK10/L2, average of replicates): 2.1%
inhibition at 10 µM ([3]; read-out: Inhibition at 10µM (%) Replicate 1, CDK10/L2): 1.6%
inhibition at 10 µM ([3]; read-out: Inhibition at 10µM (%) Replicate 2, CDK10/L2): 2.6%
inhibition at 10 µM ([4]; read-out: Inhibition at 10µM (%) Average, CDK19/C, average of replicates): 16.1%
inhibition at 10 µM ([4]; read-out: Inhibition at 10µM (%) Replicate 1, CDK19/C): 17.8%
inhibition at 10 µM ([4]; read-out: Inhibition at 10µM (%) Replicate 2, CDK19/C): 14.4%
inhibition at 10 µM ([5]; read-out: Inhibition at 10µM (%) Average, CDK7, average of replicates): 27.8%
inhibition at 10 µM ([5]; read-out: Inhibition at 10µM (%) Replicate 1, CDK7): 10.8%
inhibition at 10 µM ([5]; read-out: Inhibition at 10µM (%) Replicate 2, CDK7): 44.9%
IC50 [6, 23]: 820 ± 50 nM
IC50 [6, 24]: 842 nM
IC50 [6, 25]: 720 nM
IC50 [6, 26]: 901 nM
inhibition at 10 µM ([6]; read-out: Inhibition at 10µM (%) Average, CDK15/Y, average of replicates): 55.3%
inhibition at 10 µM ([6]; read-out: Inhibition at 10µM (%) Replicate 1, CDK15/Y): 50.5%
inhibition at 10 µM ([6]; read-out: Inhibition at 10µM (%) Replicate 2, CDK15/Y): 60.1%
inhibition at 10 µM ([7]; read-out: Inhibition at 10µM (%) Average, CDK3/E1, average of replicates): 54.2%
inhibition at 10 µM ([7]; read-out: Inhibition at 10µM (%) Replicate 1, CDK3/E1): 39.2%
inhibition at 10 µM ([7]; read-out: Inhibition at 10µM (%) Replicate 2, CDK3/E1): 69.3%
inhibition at 10 µM ([8]; read-out: Inhibition at 10µM (%) Average, CDK18/Y, average of replicates): 28.7%
inhibition at 10 µM ([8]; read-out: Inhibition at 10µM (%) Replicate 1, CDK18/Y): 11.9%
inhibition at 10 µM ([8]; read-out: Inhibition at 10µM (%) Replicate 2, CDK18/Y): 45.6%
IC50 [9, 23]: 600 ± 200 nM
IC50 [9, 24]: 217 nM
IC50 [9, 25]: 690 nM
IC50 [9, 26]: 766 nM
inhibition at 10 µM ([9]; read-out: Inhibition at 10µM (%) Average, CDK14/Y, average of replicates): 32.4%
inhibition at 10 µM ([9]; read-out: Inhibition at 10µM (%) Replicate 1, CDK14/Y): 39%
inhibition at 10 µM ([9]; read-out: Inhibition at 10µM (%) Replicate 2, CDK14/Y): 25.8%
inhibition at 10 µM [10, 20]: 99.1%
inhibition at 10 µM [10, 21]: 98.6%
inhibition at 10 µM [10, 22]: 99.5%
IC50 [10, 23]: 7 ± 3 nM
IC50 [10, 24]: 2.5 nM
IC50 [10, 25]: 3.9 nM
IC50 [10, 26]: 13 nM
inhibition at 10 µM [11, 20]: 22.1%
inhibition at 10 µM [11, 21]: 24.7%
inhibition at 10 µM [11, 22]: 19.6%
inhibition at 10 µM [12, 20]: 39.8%
inhibition at 10 µM [12, 21]: 12.7%
inhibition at 10 µM [12, 22]: 67%
inhibition at 10 µM ([13]; read-out: Inhibition at 10µM (%) Average, CDK17/Y, average of replicates): 43.6%
inhibition at 10 µM ([13]; read-out: Inhibition at 10µM (%) Replicate 1, CDK17/Y): 42.5%
inhibition at 10 µM ([13]; read-out: Inhibition at 10µM (%) Replicate 2, CDK17/Y): 44.7%
inhibition at 10 µM ([14]; read-out: Inhibition at 10µM (%) Average, CDK11b/L2, average of replicates): 8.5%
inhibition at 10 µM ([14]; read-out: Inhibition at 10µM (%) Replicate 1, CDK11b/L2): 5.1%
inhibition at 10 µM ([14]; read-out: Inhibition at 10µM (%) Replicate 2, CDK11b/L2): 11.9%
IC50 [15, 23]: 200 ± 100 nM
IC50 [15, 24]: 103 nM
IC50 [15, 25]: 420 nM
IC50 [15, 26]: 188 nM
inhibition at 10 µM ([15]; read-out: Inhibition at 10µM (%) Replicate 1, CDK16/Y): 64.2%
inhibition at 10 µM ([15]; read-out: Inhibition at 10µM (%) Replicate 2, CDK16/Y): 56.2%
inhibition at 10 µM ([16]; read-out: Inhibition at 10µM (%) Replicate 1, CDK20/H): 24.8%
inhibition at 10 µM ([16]; read-out: Inhibition at 10µM (%) Replicate 2, CDK20/H): 6.8%
inhibition at 10 µM [17, 20]: 34.5%
inhibition at 10 µM [17, 21]: 45.4%
inhibition at 10 µM [17, 22]: 23.6%
inhibition at 10 µM [18, 20]: 92.7%
inhibition at 10 µM [18, 21]: 97.7%
inhibition at 10 µM [18, 22]: 87.7%
IC50 [18, 23]: 6 ± 2 nM
IC50 [18, 24]: 3.2 nM
IC50 [18, 25]: 4.9 nM
IC50 [18, 26]: 11 nM
inhibition at 10 µM [19, 20]: 63.9%
inhibition at 10 µM [19, 21]: 40.8%
inhibition at 10 µM [19, 22]: 87%
IC50 [19, 23]: 310 ± 70 nM
IC50 [19, 24]: 171 nM
IC50 [19, 25]: 400 nM
IC50 [19, 26]: 370 nM
